US9162975B2, “Phenyl carbamate compounds for use in alleviating or treating pain” (Bio-Pharm Solutions Co., Ltd., priority 2011, dated 2015)

Experiments:
ICR mice [1] = assay: Writhing test (acetic acid); assay type: in vivo; details: number of writhes relative to vehicle control, 20 mg/kg po, 0.6% acetic acid
Description: To examine the pain relief effect of the phenyl carbamate compounds, a writhing test was conducted in general pain animal model referring to Fischer, L. G. et al. (2008).
(§1) ICR mice (male, 24-28 g; Orient Bio, Korea) were habituated before test in test room for 1 hour Animals were fasted 2 hr, before administration of compounds. Each of Compound 1, 2, 3, 4, 5, 63, 65, and 67 was orally administered at the dose of 20 mg/kg, 10 ul/g, bw (n=3˜5/group). All compounds were dissolved in a vehicle of 30% (v/v) PEG 400 or 20% (v/v) Tween 80. The control group was treated the vehicle without compounds.
One hour after the administration of Compounds, 0.6% acetic acid at the dose of 10 ul/g, bw was injected into the mice. Animals were habituated in the cage for 5 min 5 min after habituation, the number of writhes (abdominal constriction) for 15 min was counted referring to Korzeniewska-Rybicka, I. et al. (1998) and compared with that of a control.

ICR mice [2] = assay: Hot-plate test; assay type: in vivo; details: withdrawal latency relative to vehicle control, 150 mg/kg po, hot plate 55±1° C.
Description: To examine the pain relief effect of the phenyl carbamate compounds, a hot-plate test was conducted in general pain animal model referring to Current Protocols in Neuroscience; Behavioral Neuroscience Unit 8.9.
as §1, with “(male, 30-35” for “(male, 24-28”, “2 hr” for “2 hr,”, “of 150” for “of 20”, “bw (n=7˜10/group).” for “bw (n=3˜5/group).”
0.5 hr after the administration of compounds, the mice were put on a hot plate pre-heated to 55±1° C. (Hu, X. et al, 2008), and then, measured as the withdrawal latency (cut-off time: 30 sec) time until the point when each mouse was taking off a paw from the plate, shaking, licking a paw or hind leg, or jumping from the plate.

mice = assay: Measurement of neurotoxicity (rotarod); assay type: in vivo; details: protective index, ratio of TD50 to ED50 in MES
Description: The measurement of neurotoxicity of the test compounds was conducted by the method of Dunham and Miya [Dunham, N. W. and Miya, T. S. 1957. A note on a simple apparatus for detecting neurological deficit in rats and mice. J. Am. Pharm. Assoc. (Baltimore) 46: 208-209]. In the method, motor abilities of the test animals can be determined by observing whether the test animals can walk without falling from a rotator, thereby determining the value of neurotoxicity of each compound. […] They were pre-trained on the rotarod (Rotarod; Columbus instrument, rota-max, USA) at 6 rpm for 5 min 24 hr prior to the test. The peak time was determined by administration test material's random dose for 0.5, 1, 2, 4 hour. […] The ratio of TD50 to ED50 (TD50/ED50) is called as a protective index, and useful as a parameter for comparison of pharmaceutical efficacy and neurotoxicity.

SNL model in rats = assay: Antiallodynic activity on Chung model (SNL, spinal nerve ligation), von Frey; assay type: in vivo, Sprague-Dawley rats; details: paw withdrawal threshold relative to sham, 50 mg/kg p.o.
Description: Male Sprague-Dawley rats (200-220 g, Orient Bio, Korea) were habituated for 1 week before the experiment and allowed free access to food and water throughout the experimentation. Room temperature and humidity were maintained at 24±2° C. and 50±10%, respectively. Neuropathic surgery (SNL, Spinal nerve ligation) model was done as described in Kim and Chung (1992). Briefly, animal under gaseous anesthesia with isoflurane a 4:4 flow ratio of NO2. The left lumber spinal nerve L5 and L6 were isolated and tightly ligated with 4˜0 silk thread. The wound was treated with a gentamicin antibiotics solution (4 mg/kg, 4 ul/g, bw), and the wound muscle was closed with cat cut chrome 4/0 thread and skin was closed dafilon 4/0 tread. Sham controls were prepared in the same manner as the spinal nerves were exposed, but no ligated L5 and L6 nerves. But, vehicle controls were identical to SNL model, except for administration of vehicles.
Tactile sensitivity (Mechanical allodynia) was evaluated using von Frey monofilaments before and after treatment and animals were used withdrawal threshold value was less than 4 g. […] The tactile sensitivity for ipsilateral hind paw was measured using the up-and-down method (Dixon, 1980) with seven von Frey monofilaments (0.4, 1, 2, 4, 6, 8, and 15 g) to 3 trials. […] The 50% paw withdrawal threshold for each paw was calculated using the following formula: [Xth] log=[vFr] log+ky where [vFr] is the force of the last von Frey used, k=0.2249 which is the average interval (in log units) between the von Frey monofilaments, and y is a value that depends upon the pattern of withdrawal responses (Dixon, 1980).
All animals were fasted 18 h before the administration of the compounds. Antiallodynic effect of compounds of Examples 1, 63 and 65 were evaluated at the dose of 5, 10 and 30 mg/kg (n=5˜6), orally administrated in a volume of 5 ul/g, bw in a vehicle of 30% (v/v) PEG 400 (Examples 1 and 63) or 20% (v/v) Tween 80 (Example 65). […]

CC(OC(N)=O)C(O)c1ccccc1Cl (racemic) [Example 3, 1-(2-chlorophenyl)-1-hydroxypropyl-2-carbamate]
Writhing test (20 mg/kg, 1 h, po) % Control (ICR mice [1]): 84.8% | Hot-plate test (150 mg/kg, 0.5 h, po) % Control (ICR mice [2]): 120.5% | PI(TD50/ED50 in MES) (mice): 12.0

C[C@H](OC(N)=O)[C@@H](O)c1ccccc1F [Example 63, 1-(2-fluorophenyl)-(S)-1-hydroxypropyl-(S)-2-carbamate]
Writhing test (20 mg/kg, 1 h, po) % Control (ICR mice [1]): 63.9% | Hot-plate test (150 mg/kg, 0.5 h, po) % Control (ICR mice [2]): 183.1% | SNL (50 mg/kg, 1 h, p.o.) % Control (SNL model in rats): 55.4%

CC[C@H](OC(N)=O)[C@@H](O)c1ccccc1I [Example 67, 1-(2-iodophenyl)-(S)-1-hydroxybutyl-(S)-2-carbamate]
Writhing test (20 mg/kg, 1 h, po) % Control (ICR mice [1]): 68.3% | Hot-plate test (150 mg/kg, 0.5 h, po) % Control (ICR mice [2]): 131.4%

C[C@@H](OC(N)=O)[C@H](O)c1ccccc1Cl [Example 2, 1-(2-chlorophenyl)-(R)-1-hydroxypropyl-(R)-2-carbamate]
Writhing test (20 mg/kg, 1 h, po) % Control (ICR mice [1]): 73.8% | Hot-plate test (150 mg/kg, 0.5 h, po) % Control (ICR mice [2]): 129.8% | PI(TD50/ED50 in MES) (mice): 7.3

C[C@H](OC(N)=O)[C@@H](O)c1ccccc1I [Example 65, 1-(2-iodophenyl)-(S)-1-hydroxypropyl-(S)-2-carbamate]
Writhing test (20 mg/kg, 1 h, po) % Control (ICR mice [1]): 60.6% | Hot-plate test (150 mg/kg, 0.5 h, po) % Control (ICR mice [2]): 104.1% | SNL (50 mg/kg, 1 h, p.o.) % Control (SNL model in rats): 76.8%

C[C@H](OC(N)=O)[C@H](O)c1ccccc1Cl [Example 5, 1-(2-chlorophenyl)-(R)-1-hydroxypropyl-(S)-2-carbamate]
Writhing test (20 mg/kg, 1 h, po) % Control (ICR mice [1]): 66.6% | Hot-plate test (150 mg/kg, 0.5 h, po) % Control (ICR mice [2]): 145.5% | PI(TD50/ED50 in MES) (mice): 3.3

C[C@@H](OC(N)=O)[C@@H](O)c1ccccc1Cl [Example 4, 1-(2-chlorophenyl)-(S)-1-hydroxypropyl-(R)-2-carbamate]
Writhing test (20 mg/kg, 1 h, po) % Control (ICR mice [1]): 75.5% | Hot-plate test (150 mg/kg, 0.5 h, po) % Control (ICR mice [2]): 108.2%

C[C@H](OC(N)=O)[C@@H](O)c1c(Cl)cccc1Cl [Example 37, 1-(2,6-dichlorophenyl)-(S)-1-hydroxypropyl-(S)-2-carbamate]
PI(TD50/ED50 in MES) (mice): 5.1
